According to US7223865B2, “Chromogenic compounds, and use thereof as enzyme substrates” (Biomerieux, priority 2003, dated 2007):

Key:
Format in all cases: cell-based
[1] = tested on: Staphylococcus aureus (NCTC 11939); experiment: L-alanine-aminopeptidase activity on gelled medium, Example 8; parameters: key to growth: ++ means good growth; + means moderate growth; +/− means poor growth; NG means no growth
Procedure: (§1) A gelled medium comprising these three substrates is prepared as follows: 30 mg of each substrate are dissolved (heating) in 10 ml of sterile distilled water. Ten ml of this solution are then added to 90 ml of Columbia agar kept molten at 50° C.
(§2) Various strains of microorganisms derived from the NCTC collection (National Collection of Type Cultures, Colindale, UK) were seeded onto the media thus obtained according to multipoint inoculation: for each strain, a drop of 10 μl of a suspension at 0.5 McFarland is deposited onto each of the culture media.
(§3) The colonies formed were examined visually after incubation for 24 h and 48 h. The color and the growth of these colonies were noted.

[2] = tested on: Enterococcus faecalis (NCTC 12697); experiment: as above; parameters: key to growth: ++ means good growth; + means moderate growth; +/− means poor growth; NG means no growth
Procedure: as §1, §2, §3

[3] = tested on: Listeria monocytogenes (NCTC 11994); experiment: as above; parameters: key to growth: ++ means good growth; + means moderate growth; +/− means poor growth; NG means no growth
Procedure: as §1, §2, §3

[4] = tested on: Shigella sonnei (NCTC 9774); experiment: as above; parameters: key to growth: ++ means good growth; + means moderate growth; +/− means poor growth; NG means no growth
Procedure: as §1, §2, §3

[5] = tested on: Enterococcus faecium (NCTC 7171); experiment: as above; parameters: key to growth: ++ means good growth; + means moderate growth; +/− means poor growth; NG means no growth
Procedure: as §1, §2, §3

[6] = tested on: E. coli O157 (NCTC 12079); experiment: as above; parameters: key to growth: ++ means good growth; + means moderate growth; +/− means poor growth; NG means no growth
Procedure: as §1, §2, §3

[7] = tested on: Staphylococcus aureus (NCTC 6571); experiment: as above; parameters: key to growth: ++ means good growth; + means moderate growth; +/− means poor growth; NG means no growth
Procedure: as §1, §2, §3

[8] = tested on: Klebsiella pneumoniae (NCTC 10896); experiment: as above; parameters: key to growth: ++ means good growth; + means moderate growth; +/− means poor growth; NG means no growth
Procedure: as §1, §2, §3

[9] = tested on: Enterobacter cloacae (NCTC 11936); experiment: as above; parameters: key to growth: ++ means good growth; + means moderate growth; +/− means poor growth; NG means no growth
Procedure: as §1, §2, §3

[10] = tested on: Burkholderia cepacia (NCTC 10743); experiment: as above; parameters: key to growth: ++ means good growth; + means moderate growth; +/− means poor growth; NG means no growth
Procedure: as §1, §2, §3

[11] = tested on: Salmonella typhimurium (NCTC 74); experiment: as above; parameters: key to growth: ++ means good growth; + means moderate growth; +/− means poor growth; NG means no growth
Procedure: as §1, §2, §3

[12] = tested on: Serratia marcescens (NCTC 10211); experiment: as above; parameters: key to growth: ++ means good growth; + means moderate growth; +/− means poor growth; NG means no growth
Procedure: as §1, §2, §3

[13] = tested on: Enterococcus faecalis (NCTC 755); experiment: as above; parameters: key to growth: ++ means good growth; + means moderate growth; +/− means poor growth; NG means no growth
Procedure: as §1, §2, §3

[14] = tested on: Salmonella poona (NCTC 4840); experiment: as above; parameters: key to growth: ++ means good growth; + means moderate growth; +/− means poor growth; NG means no growth
Procedure: as §1, §2, §3

[15] = tested on: Pseudomonas aeruginosa (NCTC 10662); experiment: as above; parameters: key to growth: ++ means good growth; + means moderate growth; +/− means poor growth; NG means no growth
Procedure: as §1, §2, §3

[16] = tested on: Streptococcus pyogenes (067); experiment: L-alanine-aminopeptidase activity on gelled medium, Example 3; details: 0.3 g/l
Procedure: (§4) A gelled medium comprising 300 mg/l of L-Ala-4-AP-10-MA is prepared as follows: 46.37 g of Columbia agar are added to 1 liter of distilled water and then autoclaved, and the substrate is then introduced by means of a stock solution in DMSO. Microorganisms derived from the applicant's collection were seeded onto the medium, by delimitation as three dials, using a suspension at 0.5 McFarland. The dishes were incubated at 37° C. for 48 hours. The colonies formed were examined visually after incubation for 24 and 48 hours. The color of these colonies and also the intensity of this color were noted.

[17] = tested on: Klebsiella pneumoniae (023); experiment: as above; details: 0.3 g/l
Procedure: as §4

[18] = tested on: Candida albicans (056); experiment: as above; details: 0.3 g/l
Procedure: as §4

[19] = tested on: Escherichia coli (032); experiment: as above; details: 0.3 g/l
Procedure: as §4

[20] = tested on: Listeria innocua (036); experiment: as above; details: 0.3 g/l
Procedure: as §4

[21] = tested on: Enterococcus faecalis (075); experiment: as above; details: 0.3 g/l
Procedure: as §4

[22] = tested on: Citrobacter koseri (090); experiment: as above; details: 0.3 g/l
Procedure: as §4

[23] = tested on: Staphylococcus aureus (070); experiment: as above; details: 0.3 g/l
Procedure: as §4

[24] = tested on: Proteus mirabilis (103); experiment: as above; details: 0.3 g/l
Procedure: as §4

C[C@H](N)C(=O)Nc1ccc(-c2c3ccccc3[n+](C)c3ccccc23)cc1.[Cl-] [L-Ala-4-AP-10-MA, L-alanyl-9-(4-aminophenyl)-10-methylacridinium Chloride]
3: Intensity ([17]; 24 H) | Intensity ([17]; 48 h) | Intensity ([22]; 24 H) | Intensity ([22]; 48 h)
Colorless: color of colonies ([1]; 24 h) | color of colonies ([1]; 48 h) | color of colonies ([2]; 24 h) | color of colonies ([2]; 48 h) | color of colonies ([3]; 24 h) | color of colonies ([3]; 48 h) | color of colonies ([5]; 24 h) | color of colonies ([5]; 48 h)
0.5: Intensity ([21]; 48 h)
2: Intensity ([24]; 48 h)
+/−: growth ([2]; 24 h) | growth ([2]; 48 h)
colorless: Color ([18]; 24 H) | Color ([18]; 48 h) | Color ([20]; 24 H)
NG: growth ([7]; 24 h) | growth ([7]; 48 h) | growth ([13]; 24 h) | growth ([13]; 48 h)
1: Intensity ([24]; 24 H)
Orange: color of colonies ([4]; 24 h) | color of colonies ([4]; 48 h) | color of colonies ([6]; 24 h) | color of colonies ([6]; 48 h) | color of colonies ([8]; 24 h) | color of colonies ([8]; 48 h) | color of colonies ([9]; 24 h) | color of colonies ([9]; 48 h) | color of colonies ([10]; 24 h) | color of colonies ([10]; 48 h) | color of colonies ([11]; 24 h) | color of colonies ([11]; 48 h) | color of colonies ([12]; 24 h) | color of colonies ([12]; 48 h) | color of colonies ([14]; 24 h) | color of colonies ([14]; 48 h) | color of colonies ([15]; 24 h) | color of colonies ([15]; 48 h)
pink: Color ([21]; 24 H)
++: growth ([1]; 24 h) | growth ([1]; 48 h) | growth ([3]; 24 h) | growth ([3]; 48 h) | growth ([4]; 24 h) | growth ([4]; 48 h) | growth ([5]; 24 h) | growth ([5]; 48 h) | growth ([6]; 24 h) | growth ([6]; 48 h) | growth ([8]; 24 h) | growth ([8]; 48 h) | growth ([9]; 24 h) | growth ([9]; 48 h) | growth ([10]; 24 h) | growth ([10]; 48 h) | growth ([11]; 24 h) | growth ([11]; 48 h) | growth ([12]; 24 h) | growth ([12]; 48 h) | growth ([14]; 24 h) | growth ([14]; 48 h) | growth ([15]; 24 h) | growth ([15]; 48 h)
inhibited: Color ([16]; 24 H) | Color ([16]; 48 h) | Color ([23]; 24 H) | Color ([23]; 48 h)
pink-orange: Color ([17]; 24 H) | Color ([17]; 48 h) | Color ([19]; 24 H) | Color ([19]; 48 h) | Color ([20]; 48 h) | Color ([21]; 48 h) | Color ([22]; 24 H) | Color ([22]; 48 h) | Color ([24]; 24 H) | Color ([24]; 48 h)
traces: Intensity ([20]; 48 h) | Intensity ([21]; 24 H)
3.5: Intensity ([19]; 24 H) | Intensity ([19]; 48 h)
